According to patent US10072026B2, “Crystalline form of 3-((1R,3s,5S)-3-((7-((5-methyl-1H-pyrazol-3-yl)amino)-1,6-naphthyridin-5-yl)amino)-8-azabicyclo[3.2.1]octan-8-yl)propanenitrile” (priority 2015, dated 2018):

Key:
JAK1 = JAK1 (Homo sapiens (Human), UniProt P23458); experiment: LanthaScreen JAK biochemical assay (JAK1)
[1] = test system: IL-4 induced STAT6 phosphorylation in THP-1 human monocytic cells; experiment: Cellular JAK potency assay, THP-1
Tyk2 = Tyk2 (Homo sapiens (Human), UniProt P29597); experiment: LanthaScreen JAK biochemical assay (Tyk2)
JAK2 = JAK2 (Homo sapiens (Human), UniProt O60674); experiment: LanthaScreen JAK biochemical assay (JAK2)
JAK3 = JAK3 (Homo sapiens (Human), UniProt P52333); experiment: LanthaScreen JAK biochemical assay (JAK3)
[2] = test system: IL-13 induced STAT6 phosphorylation in BEAS-2B human lung epithelial cells; experiment: AlphaScreen cellular JAK potency assay, BEAS-2B
[3] = THP-1 cells, IL-4 induced STAT6 phosphorylation
[4] = BEAS-2B cells, IL-13 induced STAT6 phosphorylation
[5] = IL-4 induced STAT6 phosphorylation, THP-1 cells
[6] = IL-13 induced STAT6 phosphorylation, BEAS-2B cells

JAK1, sequence (P23458 whole entry): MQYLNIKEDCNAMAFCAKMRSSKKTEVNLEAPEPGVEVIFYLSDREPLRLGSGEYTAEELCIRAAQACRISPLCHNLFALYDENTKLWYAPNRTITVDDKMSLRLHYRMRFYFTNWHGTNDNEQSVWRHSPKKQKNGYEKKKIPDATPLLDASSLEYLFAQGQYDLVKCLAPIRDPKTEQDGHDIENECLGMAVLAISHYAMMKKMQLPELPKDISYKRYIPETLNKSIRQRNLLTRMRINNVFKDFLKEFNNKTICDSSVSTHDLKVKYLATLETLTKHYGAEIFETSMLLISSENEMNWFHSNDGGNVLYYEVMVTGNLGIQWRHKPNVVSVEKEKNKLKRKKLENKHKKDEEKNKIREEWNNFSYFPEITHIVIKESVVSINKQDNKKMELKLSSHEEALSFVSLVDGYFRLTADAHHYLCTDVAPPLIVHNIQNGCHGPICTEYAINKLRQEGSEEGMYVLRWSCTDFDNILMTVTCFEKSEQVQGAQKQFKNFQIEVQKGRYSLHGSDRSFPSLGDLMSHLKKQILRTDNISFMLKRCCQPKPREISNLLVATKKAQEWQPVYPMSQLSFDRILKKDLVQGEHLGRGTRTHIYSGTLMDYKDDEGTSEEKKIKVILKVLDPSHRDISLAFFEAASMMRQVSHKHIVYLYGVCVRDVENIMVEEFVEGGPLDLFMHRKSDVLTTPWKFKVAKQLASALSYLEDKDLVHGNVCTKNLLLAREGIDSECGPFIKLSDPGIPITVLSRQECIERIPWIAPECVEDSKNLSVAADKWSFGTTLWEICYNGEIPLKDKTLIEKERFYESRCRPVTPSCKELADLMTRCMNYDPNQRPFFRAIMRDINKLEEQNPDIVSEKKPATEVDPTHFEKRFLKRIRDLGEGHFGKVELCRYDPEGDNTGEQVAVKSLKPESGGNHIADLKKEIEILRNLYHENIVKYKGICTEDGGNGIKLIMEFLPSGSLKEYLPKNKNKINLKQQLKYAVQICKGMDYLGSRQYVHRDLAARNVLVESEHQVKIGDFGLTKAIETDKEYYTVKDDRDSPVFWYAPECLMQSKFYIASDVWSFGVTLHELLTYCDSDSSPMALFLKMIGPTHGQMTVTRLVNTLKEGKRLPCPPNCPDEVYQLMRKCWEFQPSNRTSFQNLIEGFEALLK
Tyk2, sequence (P29597 whole entry): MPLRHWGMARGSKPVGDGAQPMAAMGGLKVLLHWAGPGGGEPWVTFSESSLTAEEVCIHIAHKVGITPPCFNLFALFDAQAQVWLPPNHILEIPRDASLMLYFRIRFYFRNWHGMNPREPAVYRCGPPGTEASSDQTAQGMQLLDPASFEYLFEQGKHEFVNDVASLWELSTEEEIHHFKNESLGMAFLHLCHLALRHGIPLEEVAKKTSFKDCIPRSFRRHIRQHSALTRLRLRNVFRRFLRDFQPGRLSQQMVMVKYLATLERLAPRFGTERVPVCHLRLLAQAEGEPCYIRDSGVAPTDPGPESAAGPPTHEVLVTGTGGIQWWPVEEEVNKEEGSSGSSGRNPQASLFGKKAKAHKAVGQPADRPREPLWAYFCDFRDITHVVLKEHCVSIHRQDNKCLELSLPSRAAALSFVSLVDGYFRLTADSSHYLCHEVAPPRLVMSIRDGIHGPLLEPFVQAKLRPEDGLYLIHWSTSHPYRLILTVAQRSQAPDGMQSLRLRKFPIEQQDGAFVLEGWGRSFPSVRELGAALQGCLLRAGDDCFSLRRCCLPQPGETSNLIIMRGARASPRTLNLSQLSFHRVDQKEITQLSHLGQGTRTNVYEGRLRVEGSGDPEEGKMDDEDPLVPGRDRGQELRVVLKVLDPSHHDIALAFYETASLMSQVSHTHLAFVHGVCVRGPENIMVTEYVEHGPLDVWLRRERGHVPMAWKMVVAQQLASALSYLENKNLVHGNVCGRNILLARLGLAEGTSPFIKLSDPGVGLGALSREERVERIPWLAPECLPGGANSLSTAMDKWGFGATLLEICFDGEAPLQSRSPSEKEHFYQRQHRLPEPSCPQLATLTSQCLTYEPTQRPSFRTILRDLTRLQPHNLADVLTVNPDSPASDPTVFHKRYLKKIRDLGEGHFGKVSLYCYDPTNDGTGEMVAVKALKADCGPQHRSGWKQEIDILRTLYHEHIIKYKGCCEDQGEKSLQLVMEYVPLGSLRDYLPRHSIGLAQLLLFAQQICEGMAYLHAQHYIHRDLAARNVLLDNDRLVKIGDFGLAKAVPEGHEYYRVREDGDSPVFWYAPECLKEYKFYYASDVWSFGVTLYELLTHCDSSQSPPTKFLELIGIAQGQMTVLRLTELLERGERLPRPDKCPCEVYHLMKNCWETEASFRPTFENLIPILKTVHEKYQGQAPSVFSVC
JAK2, sequence (O60674 whole entry): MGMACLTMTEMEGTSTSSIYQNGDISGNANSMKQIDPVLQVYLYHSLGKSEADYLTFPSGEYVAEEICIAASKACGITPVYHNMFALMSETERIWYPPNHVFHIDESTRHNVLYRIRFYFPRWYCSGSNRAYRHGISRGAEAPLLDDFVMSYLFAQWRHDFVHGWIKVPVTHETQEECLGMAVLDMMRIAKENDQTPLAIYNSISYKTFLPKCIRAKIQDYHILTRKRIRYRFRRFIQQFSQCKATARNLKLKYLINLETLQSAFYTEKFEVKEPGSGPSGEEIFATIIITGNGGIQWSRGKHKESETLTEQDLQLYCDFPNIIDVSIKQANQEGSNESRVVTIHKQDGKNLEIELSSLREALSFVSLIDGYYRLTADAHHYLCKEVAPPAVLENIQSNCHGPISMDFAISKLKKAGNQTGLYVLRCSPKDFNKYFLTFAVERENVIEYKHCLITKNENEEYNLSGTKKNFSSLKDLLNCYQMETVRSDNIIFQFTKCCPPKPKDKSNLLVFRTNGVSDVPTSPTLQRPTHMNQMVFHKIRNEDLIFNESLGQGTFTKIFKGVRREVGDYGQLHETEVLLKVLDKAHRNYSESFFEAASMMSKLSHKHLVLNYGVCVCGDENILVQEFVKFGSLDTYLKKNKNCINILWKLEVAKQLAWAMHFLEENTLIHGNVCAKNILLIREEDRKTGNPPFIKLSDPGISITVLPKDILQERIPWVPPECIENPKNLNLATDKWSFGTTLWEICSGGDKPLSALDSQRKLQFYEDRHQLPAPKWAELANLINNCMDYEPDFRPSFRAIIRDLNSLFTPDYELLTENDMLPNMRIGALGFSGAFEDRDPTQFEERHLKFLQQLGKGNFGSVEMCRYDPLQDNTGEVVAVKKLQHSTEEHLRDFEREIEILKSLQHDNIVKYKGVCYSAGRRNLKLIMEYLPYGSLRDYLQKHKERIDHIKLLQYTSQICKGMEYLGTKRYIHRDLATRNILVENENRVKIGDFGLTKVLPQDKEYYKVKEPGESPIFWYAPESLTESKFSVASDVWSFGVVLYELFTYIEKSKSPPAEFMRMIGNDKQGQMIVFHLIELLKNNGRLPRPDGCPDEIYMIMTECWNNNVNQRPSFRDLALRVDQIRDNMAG

Compound	JAK 1 (pKi) (JAK1)	THP-1 IL4 pIC50 [1, 3]	Tyk 2 (pKi) (Tyk2)	JAK 2 (pKi) (JAK2)	JAK 3 (pKi) (JAK3)	BEAS2B pIC50 [2, 4]	THP-1 IL4 pIC50 [1, 5]	IC50 ([2]; Homo sapiens, BEAS-2B, read-out: BEAS2B pIC50 (converted)) [nM]	Ki (JAK1; read-out: JAK 1 (pKi) (converted)) [nM]	IC50 ([1]; Homo sapiens, THP-1, read-out: THP-1 IL4 pIC50 (converted)) [nM]	Ki (Tyk2; read-out: Tyk 2 (pKi) (converted)) [nM]	Ki (JAK3; read-out: JAK 3 (pKi) (converted)) [nM]	BEAS2B pIC50 [2, 6]
Cc1cc(Nc2nc(NC3CC4CCC(C3)N4C(=O)C(C)O)c3cccnc3c2F)n[nH]1 (stereo not drawn) [Example 8-8]	C (C represents a pKi value between 7 and 9 (Ki between 100 nM and 1 nM))	C (C represents a pEC50 value<6.7 (EC50>200 nM))	C (C represents a pKi value between 7 and 9 (Ki between 100 nM and 1 nM))	C (C represents a pKi value between 7 and 9 (Ki between 100 nM and 1 nM))	C (C represents a pKi value between 7 and 9 (Ki between 100 nM and 1 nM))	–	–	–	–	–	–	–	–
Cc1cnc2cc(Nc3cc(C)[nH]n3)nc(N[C@@H]3C[C@H]4CCC[C@@H](C3)N4Cc3ccncc3)c2c1 [Example 6-10]	B (B represents a pKi value between 9 and 10 (Ki between 1 nM and 0.1 nM))	B (B represents a pEC50 value between 6.7 and 7.5 (EC50 between 200 nM and 32 nM))	B (B represents a pKi value between 9 and 10 (Ki between 1 nM and 0.1 nM))	B (B represents a pKi value between 9 and 10 (Ki between 1 nM and 0.1 nM))	C (C represents a pKi value between 7 and 9 (Ki between 100 nM and 1 nM))	–	–	–	–	–	–	–	–
COc1cnc2cc(Nc3cc(C)[nH]n3)nc(N[C@@H]3C[C@H]4CC[C@@H](C3)N4S(=O)(=O)CCC#N)c2c1 [Example 6-22]	B (B represents a pKi value between 9 and 10 (Ki between 1 nM and 0.1 nM))	–	B (B represents a pKi value between 9 and 10 (Ki between 1 nM and 0.1 nM))	B (B represents a pKi value between 9 and 10 (Ki between 1 nM and 0.1 nM))	C (C represents a pKi value between 7 and 9 (Ki between 100 nM and 1 nM))	B (B represents a pEC50 value between 6.7 and 7.5 (EC50 between 200 nM and 32 nM))	–	–	–	–	–	–	–
Cc1cc(Nc2nc(NC3CC4CCCC(C3)N4C(=O)C(C)O)c3cccnc3c2F)n[nH]1 (stereo not drawn) [Example 8-16]	B (B represents a pKi value between 9 and 10 (Ki between 1 nM and 0.1 nM))	B (B represents a pEC50 value between 6.7 and 7.5 (EC50 between 200 nM and 32 nM))	C (C represents a pKi value between 7 and 9 (Ki between 100 nM and 1 nM))	B (B represents a pKi value between 9 and 10 (Ki between 1 nM and 0.1 nM))	C (C represents a pKi value between 7 and 9 (Ki between 100 nM and 1 nM))	–	–	–	–	–	–	–	–
COc1cnc2cc(Nc3cc(C)[nH]n3)nc(NC3CC4CCCC(C3)N4C(=O)C(C)O)c2c1 (stereo not drawn) [Example 6-27]	B (B represents a pKi value between 9 and 10 (Ki between 1 nM and 0.1 nM))	B (B represents a pEC50 value between 6.7 and 7.5 (EC50 between 200 nM and 32 nM))	C (C represents a pKi value between 7 and 9 (Ki between 100 nM and 1 nM))	B (B represents a pKi value between 9 and 10 (Ki between 1 nM and 0.1 nM))	C (C represents a pKi value between 7 and 9 (Ki between 100 nM and 1 nM))	–	–	–	–	–	–	–	–
CCC(C)C(=O)N1C2CCCC1CC(Nc1nc(Nc3cc(C)[nH]n3)cc3ncccc13)C2 (stereo not drawn) [Example 2-18]	B (B represents a pKi value between 9 and 10 (Ki between 1 nM and 0.1 nM))	–	B (B represents a pKi value between 9 and 10 (Ki between 1 nM and 0.1 nM))	B (B represents a pKi value between 9 and 10 (Ki between 1 nM and 0.1 nM))	C (C represents a pKi value between 7 and 9 (Ki between 100 nM and 1 nM))	–	A (A represents a pEC50 value≥7.5 (EC50≤32 nM))	–	–	–	–	–	–
Cc1cc(Nc2cc3nc(CN4CCC(F)(F)CC4)ccc3c(N[C@@H]3C[C@H]4CC[C@@H](C3)N4CC(C)C)n2)n[nH]1 [Example 5-34]	B (B represents a pKi value between 9 and 10 (Ki between 1 nM and 0.1 nM))	–	B (B represents a pKi value between 9 and 10 (Ki between 1 nM and 0.1 nM))	B (B represents a pKi value between 9 and 10 (Ki between 1 nM and 0.1 nM))	C (C represents a pKi value between 7 and 9 (Ki between 100 nM and 1 nM))	–	B (B represents a pEC50 value between 6.7 and 7.5 (EC50 between 200 nM and 32 nM))	–	–	–	–	–	–
COC(=O)c1cnc2cc(Nc3cc(C)[nH]n3)nc(N[C@@H]3C[C@H]4CCC[C@@H](C3)N4CCC#N)c2c1 [Example 6-47]	A (A represents a pKi value≥10 (Ki≤0.1 nM))	A (A represents a pEC50 value≥7.5 (EC50≤32 nM))	B (B represents a pKi value between 9 and 10 (Ki between 1 nM and 0.1 nM))	A (A represents a pKi value≥10 (Ki≤0.1 nM))	B (B represents a pKi value between 9 and 10 (Ki between 1 nM and 0.1 nM))	A (A represents a pEC50 value≥7.5 (EC50≤32 nM))	–	–	–	–	–	–	–
CCC(C)C(=O)N1C2CCC1CC(Nc1nc(Nc3cc(C)[nH]n3)cc3ncc(C(=O)OC)cc13)C2 (stereo not drawn) [Example 6-38]	B (B represents a pKi value between 9 and 10 (Ki between 1 nM and 0.1 nM))	B (B represents a pEC50 value between 6.7 and 7.5 (EC50 between 200 nM and 32 nM))	C (C represents a pKi value between 7 and 9 (Ki between 100 nM and 1 nM))	B (B represents a pKi value between 9 and 10 (Ki between 1 nM and 0.1 nM))	C (C represents a pKi value between 7 and 9 (Ki between 100 nM and 1 nM))	–	–	–	–	–	–	–	–
COC(=O)c1cnc2cc(Nc3cc(C)[nH]n3)nc(N[C@@H]3C[C@H]4CCC[C@@H](C3)N4C[C@H]3CCC(=O)O3)c2c1 [Example 6-49]	B (B represents a pKi value between 9 and 10 (Ki between 1 nM and 0.1 nM))	B (B represents a pEC50 value between 6.7 and 7.5 (EC50 between 200 nM and 32 nM))	C (C represents a pKi value between 7 and 9 (Ki between 100 nM and 1 nM))	B (B represents a pKi value between 9 and 10 (Ki between 1 nM and 0.1 nM))	C (C represents a pKi value between 7 and 9 (Ki between 100 nM and 1 nM))	–	–	–	–	–	–	–	–
Cc1cc(Nc2cc3nc(CS(C)(=O)=O)ccc3c(N[C@@H]3C[C@H]4CC[C@@H](C3)N4CCC(F)(F)F)n2)n[nH]1 [Example 5-43]	B (B represents a pKi value between 9 and 10 (Ki between 1 nM and 0.1 nM))	–	B (B represents a pKi value between 9 and 10 (Ki between 1 nM and 0.1 nM))	B (B represents a pKi value between 9 and 10 (Ki between 1 nM and 0.1 nM))	C (C represents a pKi value between 7 and 9 (Ki between 100 nM and 1 nM))	–	B (B represents a pEC50 value between 6.7 and 7.5 (EC50 between 200 nM and 32 nM))	–	–	–	–	–	–
Cc1cnc2cc(Nc3cc(C)[nH]n3)nc(N[C@@H]3C[C@H]4CC[C@@H](C3)N4S(C)(=O)=O)c2c1 [Example 6-5]	–	–	–	A (A represents a pKi value≥10 (Ki≤0.1 nM))	–	–	–	< 31.6	0.1 to 1	< 31.6	0.1 to 1	1 to 100	–
Cc1cnc2cc(Nc3cc(C)[nH]n3)nc(N[C@@H]3C[C@H]4CC[C@@H](C3)N4CCC#N)c2c1 [Example 6-1]	B (B represents a pKi value between 9 and 10 (Ki between 1 nM and 0.1 nM))	A (A represents a pEC50 value≥7.5 (EC50≤32 nM))	B (B represents a pKi value between 9 and 10 (Ki between 1 nM and 0.1 nM))	B (B represents a pKi value between 9 and 10 (Ki between 1 nM and 0.1 nM))	C (C represents a pKi value between 7 and 9 (Ki between 100 nM and 1 nM))	A (A represents a pEC50 value≥7.5 (EC50≤32 nM))	–	–	–	–	–	–	–
Cc1cc(Nc2cc3ncccc3c(N[C@@H]3C[C@H]4CCC[C@@H](C3)N4C(=O)OCC3CC3)n2)n[nH]1 [Example 3-10]	B (B represents a pKi value between 9 and 10 (Ki between 1 nM and 0.1 nM))	–	B (B represents a pKi value between 9 and 10 (Ki between 1 nM and 0.1 nM))	B (B represents a pKi value between 9 and 10 (Ki between 1 nM and 0.1 nM))	C (C represents a pKi value between 7 and 9 (Ki between 100 nM and 1 nM))	–	–	–	–	–	–	–	B (B represents a pEC50 value between 6.7 and 7.5 (EC50 between 200 nM and 32 nM))
Cc1cc(Nc2nc(N[C@@H]3C[C@H]4CCC[C@@H](C3)N4S(=O)(=O)c3ccccc3)c3cccnc3c2F)n[nH]1 [Example 8-11]	B (B represents a pKi value between 9 and 10 (Ki between 1 nM and 0.1 nM))	B (B represents a pEC50 value between 6.7 and 7.5 (EC50 between 200 nM and 32 nM))	C (C represents a pKi value between 7 and 9 (Ki between 100 nM and 1 nM))	B (B represents a pKi value between 9 and 10 (Ki between 1 nM and 0.1 nM))	C (C represents a pKi value between 7 and 9 (Ki between 100 nM and 1 nM))	A (A represents a pEC50 value≥7.5 (EC50≤32 nM))	–	–	–	–	–	–	–
Cc1cc(Nc2cc3ncccc3c(N[C@@H]3C[C@H]4CC[C@@H](C3)N4C(=O)C(C)F)n2)n[nH]1 (stereo partly drawn) [Example 2-3]	B (B represents a pKi value between 9 and 10 (Ki between 1 nM and 0.1 nM))	–	–	B (B represents a pKi value between 9 and 10 (Ki between 1 nM and 0.1 nM))	C (C represents a pKi value between 7 and 9 (Ki between 100 nM and 1 nM))	–	B (B represents a pEC50 value between 6.7 and 7.5 (EC50 between 200 nM and 32 nM))	–	–	–	–	–	A (A represents a pEC50 value≥7.5 (EC50≤32 nM))
